From US20240343727A1, “PYRIDAZINONE OR PYRIDINONE COMPOUNDS, PREPARATION METHODS AND USES THEREOF” (InventisBio Co., Ltd., priority 2021, published 2024)

What follows are compounds tested against T1, PARP7 (Homo sapiens, UniProt Q7Z3E1) (assay: PARP7 TR-FRET assay (binding, displacement of biotinylated Probe A)). Details: 6 nM PARP7, 2 nM Probe A, 25° C., 30 min.
T1 sequence (Q7Z3E1 1-657): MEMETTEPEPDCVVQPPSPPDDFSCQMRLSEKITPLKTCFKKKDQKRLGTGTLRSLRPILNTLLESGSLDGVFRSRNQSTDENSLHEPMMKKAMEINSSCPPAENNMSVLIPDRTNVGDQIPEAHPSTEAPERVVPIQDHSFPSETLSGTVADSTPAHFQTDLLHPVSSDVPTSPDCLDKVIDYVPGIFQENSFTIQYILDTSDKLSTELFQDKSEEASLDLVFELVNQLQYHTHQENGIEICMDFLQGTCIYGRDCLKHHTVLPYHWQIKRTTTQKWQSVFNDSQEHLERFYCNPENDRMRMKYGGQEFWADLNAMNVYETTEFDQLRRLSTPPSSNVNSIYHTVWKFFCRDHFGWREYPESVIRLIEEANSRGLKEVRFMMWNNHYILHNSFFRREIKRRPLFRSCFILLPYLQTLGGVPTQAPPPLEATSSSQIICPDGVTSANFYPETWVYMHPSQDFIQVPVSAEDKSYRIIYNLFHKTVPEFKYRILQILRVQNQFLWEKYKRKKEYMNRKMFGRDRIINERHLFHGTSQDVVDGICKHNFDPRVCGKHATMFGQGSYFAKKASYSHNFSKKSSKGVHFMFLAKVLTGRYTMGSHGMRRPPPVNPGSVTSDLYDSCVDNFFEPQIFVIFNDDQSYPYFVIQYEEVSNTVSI
Outline: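 Compound displacement of biotinylated Probe A (2 nM) from PARP7 (6 nM) measured by TR-FRET in HEPES pH 8.0 buffer, 30 min at 25° C. Detection used ULight-anti 6xHis (4 nM) plus Eu-streptavidin (0.25 nM) for 30 min, reading the 665/615 nm ratio. % inhibition was taken against DMSO and no-enzyme wells, and IC50 from a Hill fit.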

Row | Structure (SMILES) | IC50 [nM]
1 | O=C(CC1CN(c2cc(C(F)(F)F)c(=O)[nH]n2)CCO1)N1CCN(c2ncc(C(F)(F)F)cn2)CC1 (single isomer, unassigned) [Compound 32] | < 100
2 | N#Cc1ccc2c(c1)N(c1cc(C(F)(F)F)c(=O)[nH]n1)CC(CC(=O)N1CCN(c3ncc(Cl)cn3)CC1)O2 (single isomer, unassigned) [Compound 216] | < 100
3 | O=C(CC1CN(c2cc(C(F)(F)F)c(=O)[nH]n2)c2cc(F)ccc2O1)N1CCN(c2ccc(C3CC3)cn2)CC1 (single isomer, unassigned) [Compound 300] | < 100
4 | Cc1cccc2c(N3CCOC(CC(=O)N4CCN(c5ncc(C(F)(F)F)cn5)CC4)C3)n[nH]c(=O)c12 (single isomer, unassigned) [Compound 101] | 100 to 1000
5 | Cn1ccc2c(=O)[nH]nc(Oc3cccc(C(=O)N4CCN(c5ncc(C(F)(F)F)cn5)CC4)c3)c21 [Compound 73] | < 100
6 | O=C(c1cccc(Oc2n[nH]c(=O)c(C(F)(F)F)c2CO)c1)N1CCN(c2ncc(C(F)(F)F)cn2)CC1 [Compound 71] | 100 to 1000
7 | O=C(COC1CCOc2c1n[nH]c(=O)c2Br)N1CCN(c2ncc(C(F)(F)F)cn2)CC1 (single isomer, unassigned) [Compound 8] | < 100
8 | N#Cc1cnc(N2CCN(C(=O)CC3CN(c4cc(C(F)(F)F)c(=O)[nH]n4)c4cc(C(F)F)ccc4O3)CC2)nc1 (single isomer, unassigned) [Compound 140] | < 100
9 | CC(C)(O)c1cnc(N2CCN(C(=O)c3cccc(Oc4n[nH]c(=O)c(C(F)(F)F)c4N4CC5(CCC5)C4)c3)CC2)nc1 [Compound 349] | < 100
10 | COCCNC(=O)c1ccc2c(c1)N(c1cc(C(F)(F)F)c(=O)[nH]n1)CC(CC(=O)N1CCN(c3ncc(C(F)(F)F)cn3)CC1)O2 (single isomer, unassigned) [Compound 309] | < 100
11 | Cc1c(N2C[C@@H](CC(=O)N3CCN(c4ncc(C(F)(F)F)cn4)CC3)O[C@@H](C)C2)n[nH]c(=O)c1C(F)(F)F (stereo in doubt) [Compound 40] | < 100
12 | CN1C[C@@H](OCC(=O)N2CCN(c3ncc(C(F)(F)F)cn3)CC2)c2n[nH]c(=O)c3cc(F)cc1c23 (single isomer, unassigned) [Compound 14] | < 100

Results, then the compound that gave them:

Row | IC50 [nM] | Structure (SMILES)
13 | < 100 | O=C(c1cc(Oc2n[nH]c(=O)c(C(F)(F)F)c2N2CC3(C2)CC(F)(F)C3)ccn1)N1CCN(c2cnc(C(F)(F)F)cn2)CC1 [Compound 331]
14 | < 100 | O=C(c1cccc(Oc2n[nH]c(=O)c(C(F)(F)F)c2N2CC3(CCC3)C2)c1)N1CCN(c2cnc(C(F)(F)F)cn2)CC1 [Compound 188]
15 | < 100 | C[C@@H]1CC[C@@H](CCC(=O)N2CCN(c3ncc(C(F)(F)F)cn3)CC2)N1c1cc(C(F)(F)F)c(=O)[nH]n1 [Compound 156]
16 | < 100 | COC[C@@H]1C[C@@H](OCC(=O)N2CCN(c3ncc(C(F)(F)F)cn3)CC2)c2n[nH]c(=O)c(C(F)(F)F)c2O1 [Compound 57]
17 | < 100 | Cc1c(N2C[C@H](CC(=O)N3CCN(c4ncc(C(F)(F)F)cn4)CC3)O[C@@H](C)C2)n[nH]c(=O)c1C(F)(F)F (single isomer, unassigned) [Compound 42]

What follows are compounds tested on NCI-H1373 cells (assay: Inhibition of cancer cell growth in NCI-H1373 cells (Cell-titer Glo, 6 days)). Details: Homo sapiens, NCI-H1373, 144 h, read-out: H1373 Cell Proliferation IC50.
Type: cell-based
Description: Biological Assay Example B: Inhibition of cancer cell growth in NCI-H1373 cells by PARP7 inhibitors
NCI-H1373 cells were cultured in RPMI 1640 medium supplemented with 10% fetal bovine serum, 100 U/mL penicillin and 100 ug/mL streptomycin in a 37° C., 5% CO2 incubator. Fifteen hundred cells were seeded into each well of 96-well plate in RPMI1640 medium containing 10% fetal bovine serum and incubated overnight. Serial diluted compounds for each well were added at a final DMSO concentration of 0.5% and a day zero plate was collected for analysis. Compounds were incubated with the cells for 6 days. Cell growth was assessed using Cell-titer Glo reagent (Promega #G^7572). The luminescence signal was collected on Tecan Spark plate reader. Cell growth is determined by correcting for the cell count on day zero. Inhibition rate is calculated with the formula of % inhibition=100*(DMSO control-compounds)/(DMSO control-Blank). Cell growth inhibition IC50 is calculated with the equation of Y-Bottom+ (Top-Bottom)/(1+10^((LogIC50−X) *Hill Slope)).

Row | Structure (SMILES) | IC50 [nM]
18 | O=C(CC1CN(c2cc(C(F)(F)F)c(=O)[nH]n2)CCO1)N1CCN(c2ncc(C(F)(F)F)cn2)CC1 (single isomer, unassigned) [Compound 32] | 100 to 1000
19 | N#Cc1ccc2c(c1)N(c1cc(C(F)(F)F)c(=O)[nH]n1)CC(CC(=O)N1CCN(c3ncc(Cl)cn3)CC1)O2 (single isomer, unassigned) [Compound 216] | < 100
20 | O=C(CC1CN(c2cc(C(F)(F)F)c(=O)[nH]n2)c2cc(F)ccc2O1)N1CCN(c2ccc(C3CC3)cn2)CC1 (single isomer, unassigned) [Compound 300] | 100 to 1000
21 | Cc1cccc2c(N3CCOC(CC(=O)N4CCN(c5ncc(C(F)(F)F)cn5)CC4)C3)n[nH]c(=O)c12 (single isomer, unassigned) [Compound 101] | > 1000
22 | Cn1ccc2c(=O)[nH]nc(Oc3cccc(C(=O)N4CCN(c5ncc(C(F)(F)F)cn5)CC4)c3)c21 [Compound 73] | 100 to 1000
23 | O=C(c1cccc(Oc2n[nH]c(=O)c(C(F)(F)F)c2CO)c1)N1CCN(c2ncc(C(F)(F)F)cn2)CC1 [Compound 71] | > 1000
24 | O=C(COC1CCOc2c1n[nH]c(=O)c2Br)N1CCN(c2ncc(C(F)(F)F)cn2)CC1 (single isomer, unassigned) [Compound 8] | 100 to 1000
25 | CC(C)(O)c1cnc(N2CCN(C(=O)c3cccc(Oc4n[nH]c(=O)c(C(F)(F)F)c4N4CC5(CCC5)C4)c3)CC2)nc1 [Compound 349] | < 100
26 | COCCNC(=O)c1ccc2c(c1)N(c1cc(C(F)(F)F)c(=O)[nH]n1)CC(CC(=O)N1CCN(c3ncc(C(F)(F)F)cn3)CC1)O2 (single isomer, unassigned) [Compound 309] | 100 to 1000
27 | Cc1c(N2C[C@@H](CC(=O)N3CCN(c4ncc(C(F)(F)F)cn4)CC3)O[C@@H](C)C2)n[nH]c(=O)c1C(F)(F)F (stereo in doubt) [Compound 40] | 100 to 1000
28 | CN1C[C@@H](OCC(=O)N2CCN(c3ncc(C(F)(F)F)cn3)CC2)c2n[nH]c(=O)c3cc(F)cc1c23 (single isomer, unassigned) [Compound 14] | < 100

Second part, the compound after the results:

Row | IC50 [nM] | Structure (SMILES)
29 | < 100 | O=C(c1cc(Oc2n[nH]c(=O)c(C(F)(F)F)c2N2CC3(C2)CC(F)(F)C3)ccn1)N1CCN(c2cnc(C(F)(F)F)cn2)CC1 [Compound 331]
30 | < 100 | O=C(c1cccc(Oc2n[nH]c(=O)c(C(F)(F)F)c2N2CC3(CCC3)C2)c1)N1CCN(c2cnc(C(F)(F)F)cn2)CC1 [Compound 188]
31 | < 100 | C[C@@H]1CC[C@@H](CCC(=O)N2CCN(c3ncc(C(F)(F)F)cn3)CC2)N1c1cc(C(F)(F)F)c(=O)[nH]n1 [Compound 156]
32 | < 100 | COC[C@@H]1C[C@@H](OCC(=O)N2CCN(c3ncc(C(F)(F)F)cn3)CC2)c2n[nH]c(=O)c(C(F)(F)F)c2O1 [Compound 57]
33 | > 1000 | Cc1c(N2C[C@H](CC(=O)N3CCN(c4ncc(C(F)(F)F)cn4)CC3)O[C@@H](C)C2)n[nH]c(=O)c1C(F)(F)F (single isomer, unassigned) [Compound 42]

Same assay, conditions: read-out: H1373 Cell Proliferation IC50

Row | IC50 [nM] | Structure (SMILES)
34 | > 1000 | N#Cc1cnc(N2CCN(C(=O)CC3CN(c4cc(C(F)(F)F)c(=O)[nH]n4)c4cc(C(F)F)ccc4O3)CC2)nc1 (single isomer, unassigned) [Compound 140]
